# Experimental data from patent US20050119243A1, “HIF-1 inhibitors and methods of use thereof” (priority 2003, published 2005).
# Residues, ends and D or L forms follow the SMILES beside them. *: point of attachment. Cbz = O=C(OCc1ccccc1)*
# Assays:
# [1] = test system: HIF-1α; test: HIF-1α detection in HEK 293 and HT144 cells treated with DBM plus metals; assay type: cell-based, human; details: cells exposed to DBM plus the metal
# Excerpt: In subsequent studies, similar data has been found for HEK 293 human embryonic kidney cells and HT144 melanoma cells treated with either DBM or Zn^2+. […] This finding appears to be unique to the combination of DBM with Zn^2+ since it was not observed in cells exposed to DBM plus other metals such as Fe^3+, Co^2+, Cd^2+, and Ni^2+. Furthermore, this unexpected reversal of the independent effects of DBM and Zn^2+ was not blocked by hypoxia. These observations are counterintuitive since inhibitors of HIF P4H should impede degradation of HIF-1α. Also, these two HIF P4H inhibitors appear to work in concert under inhibitory conditions to down-regulate HIF-1α with little effect on HIF-1α mRNA levels.
# [2] = test system: HIF-1α and VEGF; details: LNCaP cells, ambient O2; cited from earlier work
# [3] = test system: VEGF; details: patients with metastatic kidney cancer, high doses; cited from earlier work
# Sequence of VEGF (P15692 207-311 limits assumed): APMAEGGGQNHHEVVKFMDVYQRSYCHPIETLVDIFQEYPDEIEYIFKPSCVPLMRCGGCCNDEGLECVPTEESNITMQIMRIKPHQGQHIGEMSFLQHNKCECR
# [4] = test system: HIF-1α; test: Western blot analysis of HIF-1α in VHL (−/−) RCC-4 renal cell carcinoma cells, normoxic; assay type: cell-based, human; details: RCC-4 VHL (−/−), 1 hour
# Excerpt: As expected, HIF-1α was detected by Western blot under normoxic conditions (FIG. 19, lane 1). […] These experiments have not been performed as yet in RCC4 cells with DBM alone or in RCC4 cells transfected with pVHL.
# [5] = test system: HIF-1α; test: Western blot analysis of HIF-1α in HEK 293 cells with or without proteosome inhibitor MG-132, ambient oxygen; assay type: cell-based, human; details: HEK 293, ambient oxygen; for HIF-1α detection by Western blot: 2 hours, agent without further addition; for HIF-1α detection by Western blot with MG-132 added: agent plus MG-132
# Method: Proteosomal degradation of HIF-1α was assessed in HEK 293 embryonic kidney cells treated with DBM alone, Zn^2+ alone or the combination under ambient oxygen in the presence or absence of the proteosome inhibitor MG-132 (FIG. 18). […] (FIG. 18, lane 5). […] The HIF-1α isoforms are more clearly resolved on the gel from FIG. 18 than FIG. 15. This may be due to differences in the time the gels were run.
# [6] = test system: HIF-1α; test: Western blot analysis of HIF-1α in HEK 293 cells under hypoxic conditions; assay type: cell-based, human; details: for HIF-1α levels by Western blot: 2 hours under 1% O2
# Method: (§1) HT 144 melanoma cells (FIG. 16(A)) and HEK 293 embryonic kidney cells (FIG. 16(B)) were incubated for 2 hours under 1% O2. HIF-1α […].
# [7] = test system: HIF-1α; test: Western blot analysis of HIF-1α in HT144 melanoma cells under hypoxic conditions; assay type: cell-based, human; details: HT 144 cells; for HIF-1α levels by Western blot: 2 hours under 1% O2
# Method: as §1
# [8] = test system: HIF-1α mRNA; test: Semiquantitative PCR of HIF-1α mRNA levels in HEK 293 cells under normoxia; assay type: cell-based, human; details: HEK 293, normoxia, 2 hours, serum free media
# Method: The effects of DBM alone, Zn^2+ alone and DBM plus Zn^2+ on HIF-1αmRNA levels were assessed by semiquantitative PCR in extracts of HEK 293 kidney cells under normoxia for 2 hours in serum free media (FIG. 17). […] HIF-1αZ mRNA levels were not found to be increased (data not shown).
# [9] = test system: HIF-1α; test: Western blot analysis of HIF-1α in HEK 293 cells under ambient oxygen; assay type: cell-based, human; details: HEK 293, ambient oxygen, 1 hr
# Method: The first unexpected finding was that the combination of DBM plus Zn^2+ reversed the induced stabilization of HIF-1α observed when the cells were exposed to either DBM or Zn^2+ alone under normoxic conditions (FIG. 15). HEK 293 embryonic kidney cells were incubated at ambient levels of oxygen for 1 hr with the addition of DBM alone, Zn^2+ alone or the combination. HIF-1α was not detected at baseline by Western blot (FIG. 15, lane 1).
# One possible explanation for the loss of HIF-1α stabilization in cells treated with DBM plus Zn^2+ is chelation. DBM is a bidentate metal chelator that could itself bind to Zn^2+ in a 2:1 stochiometric ratio, however, the observed loss of HIF-1α stabilization occurred when either DBM or Zn^2+ was present in 50 μM excess at ratios of 4:1 (FIG. 15, lane 3) and 1:1 (FIG. 15, lane 5), respectively. […] Presumably, the increases in HIF-1α in FIG. 15 resulted from HIF P4H inhibition leading to diminished prolyl-4-hydroxylation and disruption of proteosomal degradation.
compound,measurement,setting,value
[Cd+2] [Cd^2+],Loss of HIF-1α detection on simultaneous treatment with DBM plus metal,[1],not observed
"[Co+2] [Co^2+, reference compound]",Loss of HIF-1α detection on simultaneous treatment with DBM plus metal,[1],not observed
same,HIF-1α and VEGF levels,[2],rapidly increase
bevacizumab: humanized monoclonal antibody specific for VEGF,Clinical response,[3],Clinical responses have been observed
"CC(C)C[C@@H](C=O)NC(=O)[C@H](CC(C)C)NC(=O)[C@H](CC(C)C)NC(=O)OCc1ccccc1 [MG-132, reference compound] (Cbz-Leu-Leu-Leu-aldehyde)",HIF-1α detection by Western blot,[4],Stabilization of HIF-1α was enhanced
same,HIF-1α detection by Western blot,[5],accumulation of a broad range of proteins that possibly represent ubiquitinated forms of HIF-1α
[Ni+2] [Ni^2+],Loss of HIF-1α detection on simultaneous treatment with DBM plus metal,[1],not observed
"[Fe+3] [Fe^3+, reference compound]","HIF-1α levels by Western blot, metal added to DBM","[6]; 2 hours under 1% O2, with DBM",decreased slower migrating isoforms of HIF-1α
same,"HIF-1α levels by Western blot, metal added to DBM","[7]; 2 hours under 1% O2, with DBM",did not significantly alter the effect of DBM on HIF-1α levels
same,Loss of HIF-1α detection on simultaneous treatment with DBM plus metal,[1],not observed
"O=C(CC(=O)c1ccccc1)c1ccccc1 [DBM, 1,3-diphenylpropane-1,3-dione]",HIF-1α mRNA levels (PCR product),[8],not significantly different from baseline
same,HIF-1α levels by Western blot,[9]; DBM alone at 100 μM,significant increase in HIF-1α levels
same,HIF-1α levels by Western blot,[6],significantly increased the levels of HIF-1α
same,HIF-1α levels by Western blot,[7],significantly increased the levels of HIF-1α
same,HIF-1α detection by Western blot,[5],readily detected
same,HIF-1α detection by Western blot with MG-132 added,[5],did not stabilize these other forms of HIF-1α
same,HIF-1α and VEGF levels,[2],rapidly increase
[Zn+2] [Zn^2+],HIF-1α mRNA levels (PCR product),[8],not significantly different from baseline
same,HIF-1α levels by Western blot,[9]; Zn^2+ alone 25 μM to 100 μM,increased HIF-1α levels in a dose dependent manner
same,HIF-1α levels by Western blot,[6],little effect
same,HIF-1α levels by Western blot,[7],decreased the more rapidly migrating isoforms of HIF-1α
same,HIF-1α detection by Western blot,[5],readily detected
same,HIF-1α detection by Western blot with MG-132 added,[5],did not stabilize these other forms of HIF-1α
